{"source": "patent US20250313563A1", "about": "“GLYCOGEN SYNTHASE KINASE 3 INHIBITORS AND USES THEREOF” (The Broad Institute, Inc., priority 2022, published 2025)", "key": {"[1]": {"target": "GSK3b (GST-full length GSK3b) (Homo sapiens (Human), UniProt P49841)", "sequence (P49841 whole entry)": "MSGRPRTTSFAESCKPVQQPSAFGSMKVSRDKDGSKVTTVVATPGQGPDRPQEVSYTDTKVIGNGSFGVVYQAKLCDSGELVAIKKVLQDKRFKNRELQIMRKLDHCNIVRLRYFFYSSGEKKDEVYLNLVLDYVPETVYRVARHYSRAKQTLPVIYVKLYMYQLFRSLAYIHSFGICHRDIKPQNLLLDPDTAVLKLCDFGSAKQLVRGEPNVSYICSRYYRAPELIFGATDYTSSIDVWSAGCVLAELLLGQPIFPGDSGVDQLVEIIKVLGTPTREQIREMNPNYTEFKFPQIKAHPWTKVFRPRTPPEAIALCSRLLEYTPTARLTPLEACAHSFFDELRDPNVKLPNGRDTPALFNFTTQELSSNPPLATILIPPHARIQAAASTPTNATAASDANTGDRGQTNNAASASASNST", "test": "GSK3b TR-FRET kinase assay", "assay_type": "biochemical", "procedure,_shortened": "(§1)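 Full-length GST-tagged human enzyme (1 nM) is exposed to test compound for 30 min before substrates are added. Phosphorylation of a primed biotinylated glycogen synthase peptide proceeds 100 min at room temperature at low ATP (4 μM α; 2 μM β) or high ATP (1 mM). Product is quantified by TR-FRET.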"}, "[2]": {"target": "GSK3α (GST-full length GSK3α) (Homo sapiens (Human), UniProt P49840)", "sequence (P49840 whole entry)": "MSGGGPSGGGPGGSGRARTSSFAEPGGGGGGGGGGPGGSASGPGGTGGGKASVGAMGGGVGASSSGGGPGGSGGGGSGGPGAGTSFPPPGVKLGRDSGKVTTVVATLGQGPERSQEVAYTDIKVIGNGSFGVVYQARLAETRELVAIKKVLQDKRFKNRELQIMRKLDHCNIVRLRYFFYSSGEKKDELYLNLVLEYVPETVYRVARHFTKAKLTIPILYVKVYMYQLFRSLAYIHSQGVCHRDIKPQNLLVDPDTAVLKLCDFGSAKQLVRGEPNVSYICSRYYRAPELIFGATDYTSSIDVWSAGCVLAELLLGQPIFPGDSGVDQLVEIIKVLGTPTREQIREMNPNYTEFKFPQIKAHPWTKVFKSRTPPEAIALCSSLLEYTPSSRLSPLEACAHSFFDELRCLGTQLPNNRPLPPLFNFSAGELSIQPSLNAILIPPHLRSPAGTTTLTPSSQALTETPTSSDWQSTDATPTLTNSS", "test": "GSK3α TR-FRET kinase assay", "assay_type": "biochemical", "procedure,_shortened": "as §1"}, "[3]": {"details": "1 nM GSK3b, 2 μM ATP, 30 minute preincubation, Table 16, read-out: GSK3-B TR-FRET BIOCHEMICAL (TR-FRET)"}, "[4]": {"details": "1 nM GSK3α, 4 μM ATP, 30 minute preincubation, Table 16, read-out: GSK3-A TR-FRET BIOCHEMICAL (TR-FRET)"}, "[5]": {"details": "read-out: GSK3-B (TR-FRET 1 mM ATP), GMean, IC50, 1 mM ATP, geometric mean"}, "[6]": {"details": "read-out: GSK3-A (TR-FRET 1 mM ATP), GMean, IC50, 1 mM ATP, geometric mean"}, "[7]": {"details": "GSK3-B (TR-FRET 1 mM ATP), GMean, IC50, 1 mM ATP, geometric mean"}, "[8]": {"details": "GSK3-A (TR-FRET 1 mM ATP), GMean, IC50, 1 mM ATP, geometric mean"}, "[9]": {"details": "1 nM GSK3b, 2 μM ATP, 30 minute preincubation, geometric mean, read-out: GSK3-B TR-FRET BIOCHEMICAL (TR-FRET), GMean, IC50"}, "[10]": {"details": "1 nM GSK3α, 4 μM ATP, 30 minute preincubation, geometric mean, read-out: GSK3-A TR-FRET BIOCHEMICAL (TR-FRET), GMean, IC50"}}, "note": "Read-outs that look alike come from different tables or passages of the source.", "data": [{"smiles": "CC(=O)N1CCC2(C1)CC1(CO2)C2=C(CC(C)(C)CC2=O)Nc2n[nH]cc21", "note": "(centres unmarked) [Compound 948040]", "values": [{"measurement": "IC50", "setting": "[1]; 1 nM GSK3b, 2 μM ATP, 30 minute preincubation, read-out: GSK3-B TR-FRET BIOCHEMICAL (TR-FRET), IC50", "result": "100 to 1000", "unit": "nM"}, {"measurement": "IC50", "setting": "[2]; 1 nM GSK3α, 4 μM ATP, 30 minute preincubation, read-out: GSK3-A TR-FRET BIOCHEMICAL (TR-FRET), IC50", "result": "≤ 100", "unit": "nM"}]}, {"smiles": "CCC1(c2cccc(C(C)c3ncccn3)c2)C2=C(CC(C)(C)CC2=O)Nc2n[nH]cc21", "note": "(centres unmarked) [Compound 948057]", "values": [{"measurement": "IC50", "setting": "[1]; [3]", "result": "1000 to 5000", "unit": "nM"}, {"measurement": "IC50", "setting": "[2]; [4]", "result": "100 to 1000", "unit": "nM"}]}, {"smiles": "CC[C@]1(c2cccc([C@H](C)c3ncccn3)c2)C2=C(CC(C)(C)CC2=O)Nc2n[nH]cc21", "note": "[Compound 948060]", "values": [{"measurement": "IC50", "setting": "[1]; [3]", "result": "≤ 100", "unit": "nM"}, {"measurement": "IC50", "setting": "[1]; [5]", "result": "1000 to 5000", "unit": "nM"}, {"measurement": "IC50", "setting": "[2]; [4]", "result": "≤ 100", "unit": "nM"}, {"measurement": "IC50", "setting": "[2]; [6]", "result": "100 to 1000", "unit": "nM"}]}, {"smiles": "CCC1(c2cccc(C(C)c3ncccn3)c2)C2=C(CC(C)(C)CC2=O)Nc2n[nH]cc21", "note": "(centres unmarked) [Compound 948061]", "values": [{"measurement": "IC50", "setting": "[1]; [3]", "result": "1000 to 5000", "unit": "nM"}, {"measurement": "IC50", "setting": "[2]; [4]", "result": "100 to 1000", "unit": "nM"}]}, {"smiles": "CCC1(c2cccc(-c3ccnc(C)n3)c2)C2=C(CC(C)(C)CC2=O)Nc2n[nH]cc21", "note": "(centres unmarked) [Compound 948088]", "values": [{"measurement": "IC50", "setting": "[1]; [3]", "result": "1000 to 5000", "unit": "nM"}, {"measurement": "IC50", "setting": "[2]; [4]", "result": "100 to 1000", "unit": "nM"}]}, {"smiles": "CCC1(c2cccc(-c3nc(C)ncc3C)c2)C2=C(CC(C)(C)CC2=O)Nc2n[nH]cc21", "note": "(centres unmarked) [Compound 948091]", "values": [{"measurement": "IC50", "setting": "[1]; [3]", "result": "100 to 1000", "unit": "nM"}, {"measurement": "IC50", "setting": "[2]; [4]", "result": "≤ 100", "unit": "nM"}]}, {"smiles": "CCC1(c2cccc(-c3ccnc(OC)n3)c2)C2=C(CC(C)(C)CC2=O)Nc2n[nH]cc21", "note": "(centres unmarked) [Compound 948092]", "values": [{"measurement": "IC50", "setting": "[1]; [3]", "result": "≤ 100", "unit": "nM"}, {"measurement": "IC50", "setting": "[2]; [4]", "result": "≤ 100", "unit": "nM"}]}, {"smiles": "CC1(C)CC(=O)C2=C(C1)Nc1n[nH]cc1C21CCN(S(=O)(=O)c2ccc(F)c(Cl)c2)CC1", "note": "[Compound 948117]", "values": [{"measurement": "IC50", "setting": "[1]; [3]", "result": "≤ 100", "unit": "nM"}, {"measurement": "IC50", "setting": "[2]; [4]", "result": "≤ 100", "unit": "nM"}]}, {"smiles": "CC1(C)CC(=O)C2=C(C1)Nc1n[nH]cc1C21CCN(S(=O)(=O)c2cccc(Cl)c2F)CC1", "note": "[Compound 948118]", "values": [{"measurement": "IC50", "setting": "[1]; [3]", "result": "≤ 100", "unit": "nM"}, {"measurement": "IC50", "setting": "[1]; [7]", "result": "100 to 1000", "unit": "nM"}, {"measurement": "IC50", "setting": "[2]; [4]", "result": "≤ 100", "unit": "nM"}, {"measurement": "IC50", "setting": "[2]; [8]", "result": "≤ 100", "unit": "nM"}]}, {"smiles": "CC1(C)CC(=O)C2=C(C1)Nc1n[nH]cc1C21CCN(S(=O)(=O)c2ccc(F)c(F)c2)CC1", "note": "[Compound 948119]", "values": [{"measurement": "IC50", "setting": "[1]; [3]", "result": "≤ 100", "unit": "nM"}, {"measurement": "IC50", "setting": "[2]; [4]", "result": "≤ 100", "unit": "nM"}]}, {"smiles": "CC1(C)CC(=O)C2=C(C1)Nc1n[nH]cc1C21CCN(S(=O)(=O)c2cnc3cccnn23)CC1", "note": "[Compound 948120]", "values": [{"measurement": "IC50", "setting": "[1]; [3]", "result": "≤ 100", "unit": "nM"}, {"measurement": "IC50", "setting": "[1]; [7]", "result": "1000 to 5000", "unit": "nM"}, {"measurement": "IC50", "setting": "[2]; [4]", "result": "≤ 100", "unit": "nM"}, {"measurement": "IC50", "setting": "[2]; [8]", "result": "100 to 1000", "unit": "nM"}]}, {"smiles": "CC1(C)CC(=O)C2=C(C1)Nc1n[nH]cc1C21CCN(S(=O)(=O)c2cc(F)ccc2F)CC1", "note": "[Compound 948121]", "values": [{"measurement": "IC50", "setting": "[1]; [3]", "result": "≤ 100", "unit": "nM"}, {"measurement": "IC50", "setting": "[1]; [7]", "result": "100 to 1000", "unit": "nM"}, {"measurement": "IC50", "setting": "[2]; [4]", "result": "≤ 100", "unit": "nM"}, {"measurement": "IC50", "setting": "[2]; [8]", "result": "100 to 1000", "unit": "nM"}]}, {"smiles": "CC1(C)CC(=O)C2=C(C1)Nc1n[nH]cc1C21CCN(S(=O)(=O)c2cc(Cl)ccc2Cl)CC1", "note": "[Compound 948122]", "values": [{"measurement": "IC50", "setting": "[1]; [3]", "result": "100 to 1000", "unit": "nM"}, {"measurement": "IC50", "setting": "[2]; [4]", "result": "≤ 100", "unit": "nM"}]}, {"smiles": "CC1(C)CC(=O)C2=C(C1)Nc1n[nH]cc1C21CCN(S(=O)(=O)c2cnn(CC(F)(F)F)c2)CC1", "note": "[Compound 948123]", "values": [{"measurement": "IC50", "setting": "[1]; [3]", "result": "≤ 100", "unit": "nM"}, {"measurement": "IC50", "setting": "[1]; [7]", "result": "100 to 1000", "unit": "nM"}, {"measurement": "IC50", "setting": "[2]; [4]", "result": "≤ 100", "unit": "nM"}, {"measurement": "IC50", "setting": "[2]; [8]", "result": "100 to 1000", "unit": "nM"}]}, {"smiles": "CCC1(c2cccc(-c3ccncc3Cl)c2)C2=C(CC(C)(C)NC2=O)Nc2n[nH]cc21", "note": "(centres unmarked) [Compound 948142]", "values": [{"measurement": "IC50", "setting": "[1]; [9]", "result": "≤ 100", "unit": "nM"}, {"measurement": "IC50", "setting": "[1]; [5]", "result": "100 to 1000", "unit": "nM"}, {"measurement": "IC50", "setting": "[2]; [10]", "result": "≤ 100", "unit": "nM"}, {"measurement": "IC50", "setting": "[2]; [6]", "result": "≤ 100", "unit": "nM"}]}, {"smiles": "CC[C@]1(c2cccc(-c3ccnc4nc(C)ccc34)c2)C2=C(CC(C)(C)NC2=O)Nc2n[nH]cc21", "note": "[Compound 948143]", "values": [{"measurement": "IC50", "setting": "[1]; [9]", "result": "100 to 1000", "unit": "nM"}, {"measurement": "IC50", "setting": "[2]; [10]", "result": "≤ 100", "unit": "nM"}]}, {"smiles": "CCC1(c2cccc(-c3c(F)cncc3OC)c2)C2=C(CC(C)(C)NC2=O)Nc2n[nH]cc21", "note": "(centres unmarked) [Compound 948145]", "values": [{"measurement": "IC50", "setting": "[1]; [9]", "result": "> 5000", "unit": "nM"}, {"measurement": "IC50", "setting": "[2]; [10]", "result": "100 to 1000", "unit": "nM"}]}, {"smiles": "CC[C@@]1(c2cccc(-c3ccnc(C)c3)c2)C2=C(C[C@@]3(CCCOC3)NC2=O)Nc2n[nH]cc21", "note": "[Compound 948146]", "values": [{"measurement": "IC50", "setting": "[1]; [9]", "result": "> 5000", "unit": "nM"}, {"measurement": "IC50", "setting": "[2]; [10]", "result": "1000 to 5000", "unit": "nM"}]}, {"smiles": "CCC1(c2cccc(-c3ccncc3C)c2)C2=C(CC(C)(COC)NC2=O)Nc2n[nH]cc21", "note": "(centres unmarked) [Compound 948147]", "values": [{"measurement": "IC50", "setting": "[1]; [9]", "result": "≤ 100", "unit": "nM"}, {"measurement": "IC50", "setting": "[2]; [10]", "result": "≤ 100", "unit": "nM"}]}, {"smiles": "CCC1(c2cccc(-c3ccnc(C)c3)c2)C2=C(CC3(CCOC3)NC2=O)Nc2n[nH]cc21", "note": "(centres unmarked) [Compound 948148]", "values": [{"measurement": "IC50", "setting": "[1]; [9]", "result": "> 5000", "unit": "nM"}, {"measurement": "IC50", "setting": "[2]; [10]", "result": "1000 to 5000", "unit": "nM"}]}, {"smiles": "CC[C@]1(c2cccc(-c3ccnc(C)c3)c2)C2=C(C[C@]3(CCOC3)NC2=O)Nc2n[nH]cc21", "note": "[Compound 948149]", "values": [{"measurement": "IC50", "setting": "[1]; [9]", "result": "100 to 1000", "unit": "nM"}, {"measurement": "IC50", "setting": "[2]; [10]", "result": "≤ 100", "unit": "nM"}]}, {"smiles": "CCC1(c2cccc(-c3ccnc4nc(C)ccc34)c2)C2=C(CC(C)(C)NC2=O)Nc2n[nH]cc21", "note": "(centres unmarked) [Compound 948151]", "values": [{"measurement": "IC50", "setting": "[1]; [9]", "result": "> 5000", "unit": "nM"}, {"measurement": "IC50", "setting": "[2]; [10]", "result": "100 to 1000", "unit": "nM"}]}]}
